For data set [1], the system named is Mycobacterium tuberculosis. Also on record: method as in PMID 24500695. The settings on record: whole-cell activity; cited from earlier work.
For data set [2], the target named is T1, recombinant M. tuberculosis DprE1 enzyme (Mycobacterium tuberculosis, UniProt P9WJF1).
T1 construct: made in house; host or cells: E. coli
The experiment in a line: DprE1 inhibition, Amplex Red/peroxidase coupled assay. The data set is classed as biochemical. Conditions: Mtb DprE1.

The next data set has as its system HepG2 cell. The experiment in a line: Cytotoxicity against HepG2 cell, MTT assay. The format is cell-based. The settings on record: at a concentration lower than 1.0 μg/mL. The procedure: (§1) HepG2 cells we r e obtained from the Chinese Type Culture Collection (Shanghai, China) and maintained in Dulbecco’s modiﬁed eagle medium (Gibco; #C11995500BT) con‐ taining 1% (v/v) penicillin/streptomycin (Beyotime; #C0222) and 10% (v/v) fetal bovine se‐ rum (Gibco; #GB10270106) in an atmosphere of 5% CO2 at 37 °C. HepG2 cells we r e seeded into 96‐we l l plates at a density of 5,000 cells/well (100 µL total volume) and treated with diﬀerent concentrations of compound 2 and 37 (0, 0.025, 0.2, 1, 5, and 10 µg/mL). After 24 h the medium wa s removed and the cells we r e incubated in a fresh medium containing 5 mg/mL MTT for 4 h. The medium wa s then removed and the precipitated formazan wa s dissolved in 100 µL of DMSO followed by shaking for 10 min. Finally, the absorbance at 570 nm wa s measured on a microplate spectrophotometer. Each treatment wa s performed […]
(§2) Figure S1. Inhibitory activity of compounds 2 and 37 against HepG2 cell. […]
On the technique in general: Tetrazolium dyes change colour on reduction, which living cells bring about.

Data set [3] in a line: Cytotoxicity against HepG2 cell, MTT assay. The data set is classed as cell-based. Conditions: human, HepG2 cells, at 5.0 μg/mL, 24 h. The procedure: as §1, §2
A short description of a further data set: in vitro. The data set is classed as in vitro ADME. The settings on record: human, microsomes, pH 7.4. Also on record: dose or concentration left out as unconfirmed. The procedure: The compounds’ metabolic stability were determined in human liver microsomes. A solution of microsomes (0.2 mg/mL) containing the compounds […], NADPH (1 mM), and phosphate buffer (100 mM, pH 7.4) were prepared. Pre-incubation was conducted at 37 °C for 10 min. There was addition of 50 µL and 5 mM NADPH to initiate the reaction. At 5, 15, 30, 60, or 120 min, 30 µL of reaction solution was taken out and quenched with 300 µL internal standard tolbutamide (10 ng/mL) in cold CH3CN. The mixture was centrifuged at 6000 rpm for 15 min at 4 °C. Then, 100 μL supernatant was diluted with 100 uL ultrapure water (Millipore, ZMQS50F01). The solution was analyzed via LC/MS analysis.

A short description of data set [4]: Pharmacokinetic study in mice. The format is in vivo. Conditions: male, ICR, mouse, plasma; for clearance: read-out: Clint (hepatic clearance) (converted); for bioavailability: oral, p.o. 10 mg/kg vs i.v. 2 mg/kg, read-out: F (oral bioavailability). An excerpt:
Animal Care and Welfare Committee of Shanghai Institute of Materia Medica, Chinese Academy of Sciences approved all animal protocols. All animal programs are in compliance with the Guide for the Care and Use of Laboratory Animals issued by Shanghai Association on Laboratory Animal Care (SALAC). SPF male ICR mice weighing 25–27 g were divided into two groups, three mice in each group. The tested compounds were administrated via oral and intravenous injection, separately. […] The compound was co-dissolved by using 0.5% carboxymethyl cellulose for p.o. administration, and 10% DMSO/40%PEG400/40% water was used for i.v. administration, respectively. After oral dosing or i.v. administration, the blood was sampled at 5, 15, 30 min, and 1, 2, 4, 7, and 24 h. The sample plasma was harvested and stored at −80 °C for analysis. Based on noncompartmental analysis (Pharsight Corporation, Sunnyvale, CA, USA), the pharmacokinetic data were analyzed using WinNonlin software version 6.3.

For the next data set, the system named is E. coli. As to the kind of experiment: Inhibitory potency against E. coli. The settings on record: at 16 µg/mL. The format is cell-based.
Data set [5] has as its system M. tuberculosis H37Rv. As to the kind of experiment: MIC determination by microplate alamar blue assay (MABA). The data set is classed as cell-based. The settings on record: Mycobacterium tuberculosis. In general terms: Alamar Blue is a resazurin reagent that responds to reducing activity.
Data set [6] has as its system M. tuberculosis H37Rv. As to the kind of experiment: [14C]-acetate metabolic labeling, TLC analysis of lipids. The data set is classed as cell-based. The settings on record: Mtb H37Rv, 10 × MIC, 100 × MIC, 24 h, compared to control bacteria.
Data set [7] deals with M. tuberculosis H37Rv. The experiment in a line: In vivo efficacy, mouse model acutely infected with Mtb H37Rv, lung CFU. Conditions: BALB/C mice, oral 50 mg/kg once per day for 4 weeks except weekends.
The nature of data set [8]: Kinetic solubility in PBS. Conditions: pH 7.4, aqueous buffer, kinetic from dmso stock.
Another data set can be described thus: physchem. The settings on record: pH 7.4, aqueous buffer, kinetic from dmso stock.

Each structure is given as a SMILES string. pIC50: −log10 of the molar value. ≈ marks a conversion by molar mass, not a printed value.

T1 sequence (P9WJF1 whole entry): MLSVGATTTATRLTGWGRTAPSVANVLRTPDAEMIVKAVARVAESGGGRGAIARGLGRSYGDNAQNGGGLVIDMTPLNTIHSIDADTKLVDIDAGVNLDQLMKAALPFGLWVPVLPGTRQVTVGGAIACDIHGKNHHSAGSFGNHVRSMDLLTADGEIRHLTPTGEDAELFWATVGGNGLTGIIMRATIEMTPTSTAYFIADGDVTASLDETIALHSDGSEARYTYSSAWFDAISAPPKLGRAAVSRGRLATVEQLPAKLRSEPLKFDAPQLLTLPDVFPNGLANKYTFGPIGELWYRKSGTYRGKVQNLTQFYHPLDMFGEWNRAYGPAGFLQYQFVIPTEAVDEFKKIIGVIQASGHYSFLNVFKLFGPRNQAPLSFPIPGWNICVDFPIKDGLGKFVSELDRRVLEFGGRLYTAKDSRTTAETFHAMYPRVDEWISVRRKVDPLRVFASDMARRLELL

As for `C[C@H]1COC2(CCN(c3nc(=O)c4cc(C(F)(F)F)cc([N+](=O)[O-])c4s3)CC2)O1` [BTZ043], in data set [1], the “minimal inhibitory concentration (MIC)” value was “lower than 0.004 µM”.

Regarding `CN(Cc1cn(-c2ccccc2)nn1)c1nc(=O)c2cc(C(F)(F)F)cc([N+](=O)[O-])c2s1` [Compound 2, 2-{methyl[(1-phenyl-1H-1,2,3-triazol-4-yl)methyl]amino}-BTZ], the pIC50 (commonly the IC50 on a negative log10 scale, so that one unit is a factor of ten) in data set [2] was 6.12 to 7.70. Also, the “Inhibition of HepG2 cell viability” value with HepG2 cell was “No inhibition of cell viability”. Also, the viability (commonly a read-out of living cells in per cent, often relative to untreated cells) at 24 h, 5 μg/mL in [3] was in the range of 72 to 75%. In “in vitro”, the CLint scaled – broadly, the capacity of the preparation to metabolise the compound, expressed as a volume cleared per time – is 17.3 mL/min/kg and the half-life (commonly the time needed for the level to fall by half in the phase considered) stood at 1.67 h. In addition, in data set [4] (IV 2 mg/kg), the AUC (in general, concentration integrated over time) worked out at 1210 ng·h/mL; the peak level (Cmax) was 1250 ng/mL; the MRT (in general, a mean duration of stay, worked out from the concentration-time curve) turned out to be 1.5 h; the half-life was 1.1 h. Besides, the clearance (as a rule, the rate of elimination divided by the concentration) in [4] (IV 2 mg/kg) is 27.8 mL/min/kg. In addition, in data set [4] (PO 10 mg/kg), the AUC stood at 2190 ng·h/mL, the highest level (Cmax) was 1800 ng/mL, the MRT was 2 h and the half-life is 1.3 h. Also, in data set [4], the bioavailability (usually dose-corrected exposure relative to a reference, in per cent) was determined as 35.7%. In addition, in the data set with E. coli, the “Inhibitory potency against E. coli” value is reported as “no obvious activity”. For the same compound, the MIC (commonly the smallest concentration in the dilution series that meets the test's criterion for growth inhibition) in the data set with M. tuberculosis H37Rv [5] (168 h, Mtb H37Rv, MABA) was determined as 9 nM. The compound further showed an MIC against M. tuberculosis H37Rv [5] (Mtb H37Rv, MABA) of 9 nM. Also, in the data set on M. tuberculosis H37Rv [6], the “Lipid profile after [14C]-acetate labeling” value (from here on “Lipid profile”) is “accumulated trehalose monomycolates (TMM) and trehalose dimycolates (TDM)”. Moreover, in the data set with M. tuberculosis H37Rv [7], the “Reduction of bacteria load in the lungs compared to the control group” value (“Reduction of bacteria load in the lungs” below) is on record as “barely displayed efficacy”. Moreover, the concentration in solution in data set [8] (solubility at 4 h) was 0.13 µg/mL (≈ 0.281 µM).

On to `CN(Cc1csc(-c2ccccc2)n1)c1nc(=O)c2cc(C(F)(F)F)cc([N+](=O)[O-])c2s1` [Compound 34, 2-{methyl[(2-phenylthiazol-4-yl)methyl]amino}-BTZ], for which the pIC50 in data set [2] is 7.16. In “in vitro”, this compound showed a CLint scaled of 71.6 mL/min/kg. In addition, the half-life in the data set “in vitro” worked out at 0.405 h. For the same compound, the MIC was 15 nM against M. tuberculosis H37Rv [5] (168 h, Mtb H37Rv, MABA); 3 ng/mL against M. tuberculosis H37Rv [5] (H37Rv, Table S1); 15 nM against M. tuberculosis H37Rv [5] (Mtb H37Rv, MABA).

On to `CN(Cc1nnc(-c2ccccc2)o1)c1nc(=O)c2cc(C(F)(F)F)cc([N+](=O)[O-])c2s1` [Compound 37, 2-{methyl[(5-phenyl-1,3,4-oxadiazol-2-yl)methyl]amino}-BTZ], for which, in [2], the pIC50 was 6.12 to 7.70. Also, in the data set with HepG2 cell, the “Inhibition of HepG2 cell viability” value was “No inhibition of cell viability”. The same compound returned a viability at 24 h, 5 μg/mL in data set [3] of 72 to 75%. For the same compound, in “in vitro”, the CLint scaled amounted to 25.5 mL/min/kg and the half-life was 1.14 h. Besides, in [4] (IV 2 mg/kg), the AUC was found to be 528 ng·h/mL, the highest level (Cmax) was 1860 ng/mL, the MRT was 0.4 h and the half-life was 0.3 h. Further, the clearance in data set [4] (IV 2 mg/kg) was 64 mL/min/kg. Moreover, in data set [4] (PO 10 mg/kg), the AUC was 1870 ng·h/mL; the Cmax – broadly, the maximum level reached in the sampled fluid or tissue – was determined as 1890 ng/mL; the MRT stood at 0.9 h; the half-life is 0.6 h. Also, the bioavailability in data set [4] was 70.6%. Moreover, in the data set with E. coli, the “Inhibitory potency against E. coli” value is “no obvious activity”. Moreover, the minimal inhibitory concentration (MIC) against M. tuberculosis H37Rv [5] (Mtb H37Rv, MABA) was determined as 6 nM. Further, the “Lipid profile” value in the data set with M. tuberculosis H37Rv [6] is “accumulated trehalose monomycolates (TMM) and trehalose dimycolates (TDM)”. Also, in the data set with M. tuberculosis H37Rv [7], the “Reduction of bacteria load in the lungs” value stood at 1.2 logs. Besides, the concentration in solution in data set [8] (solubility at 4 h) was 0.25 µg/mL (≈ 0.539 µM).

Regarding `O=c1nc(N2CCN(CC3CCCCC3)CC2)sc2c([N+](=O)[O-])cc(C(F)(F)F)cc12` [PBTZ169, reference compound], the solubility (usually how much of the substance goes into solution per volume) at 4 h in “physchem” was less than 0.011 µg/mL. Moreover, the “minimal inhibitory concentration (MIC)” value in data set [1] is given as “lower than 0.004 µM”. Besides, the MIC in the data set with M. tuberculosis H37Rv [5] (H37Rv, Table S1) is 0.2 ng/mL; with M. tuberculosis H37Rv [5] (Mtb H37Rv, MABA), less than 4 nM. Also, the “Lipid profile” value in the data set with M. tuberculosis H37Rv [6] was “accumulated trehalose monomycolates (TMM) and trehalose dimycolates (TDM)”. For the same compound, the “Reduction of bacteria load in the lungs” value in the data set on M. tuberculosis H37Rv [7] worked out at 3 logs.

Source of the values: paper PMC10377601, “Side Chain-Modified Benzothiazinone Derivatives with Anti-Mycobacterial Activity” (Biomedicines, 2023).
